Where a chain is given by its changes, count along the chain named. “Also recorded” adds a separate entry of the source.
What was measured:
OCT1 mutant Phe160Leu = target: T1, OCT1 mutant Phe160Leu (Homo sapiens, UniProt O15245); experiment: Cyanine863-inhibitable uptake in Xenopus oocytes expressing OCT1 mutant Phe160Leu; format: cell-based
T1 construct: expressed in transfected cells; host or cells: Xenopus laevis oocytes injected with cRNA transcribed from the pOG1 vector
T1 sequence (O15245 1-554): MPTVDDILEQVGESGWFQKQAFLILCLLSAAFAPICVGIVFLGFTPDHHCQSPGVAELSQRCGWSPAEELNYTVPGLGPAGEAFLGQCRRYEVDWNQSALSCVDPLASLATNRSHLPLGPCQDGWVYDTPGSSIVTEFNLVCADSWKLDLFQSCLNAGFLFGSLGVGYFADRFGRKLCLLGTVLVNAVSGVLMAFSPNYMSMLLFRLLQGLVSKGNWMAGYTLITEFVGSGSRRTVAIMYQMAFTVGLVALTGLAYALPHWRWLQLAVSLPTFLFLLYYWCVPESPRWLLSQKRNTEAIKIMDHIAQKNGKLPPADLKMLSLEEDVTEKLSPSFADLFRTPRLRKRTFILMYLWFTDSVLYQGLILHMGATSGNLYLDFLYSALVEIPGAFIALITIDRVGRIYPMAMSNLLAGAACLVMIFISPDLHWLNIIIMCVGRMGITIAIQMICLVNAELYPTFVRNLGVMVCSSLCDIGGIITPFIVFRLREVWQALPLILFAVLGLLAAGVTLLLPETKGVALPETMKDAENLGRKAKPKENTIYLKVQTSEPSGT

OCT1 mutant Met420del = target: T2, OCT1 mutant Met420del (Homo sapiens, UniProt O15245, DEL420-420); experiment: Cyanine863-inhibitable uptake in Xenopus oocytes expressing OCT1 mutant Met420del; format: cell-based
T2 construct: expressed in transfected cells; host or cells: Xenopus laevis oocytes injected with cRNA transcribed from the pOG1 vector
T2 sequence (O15245 with tags, fused parts or gaps DEL420-420): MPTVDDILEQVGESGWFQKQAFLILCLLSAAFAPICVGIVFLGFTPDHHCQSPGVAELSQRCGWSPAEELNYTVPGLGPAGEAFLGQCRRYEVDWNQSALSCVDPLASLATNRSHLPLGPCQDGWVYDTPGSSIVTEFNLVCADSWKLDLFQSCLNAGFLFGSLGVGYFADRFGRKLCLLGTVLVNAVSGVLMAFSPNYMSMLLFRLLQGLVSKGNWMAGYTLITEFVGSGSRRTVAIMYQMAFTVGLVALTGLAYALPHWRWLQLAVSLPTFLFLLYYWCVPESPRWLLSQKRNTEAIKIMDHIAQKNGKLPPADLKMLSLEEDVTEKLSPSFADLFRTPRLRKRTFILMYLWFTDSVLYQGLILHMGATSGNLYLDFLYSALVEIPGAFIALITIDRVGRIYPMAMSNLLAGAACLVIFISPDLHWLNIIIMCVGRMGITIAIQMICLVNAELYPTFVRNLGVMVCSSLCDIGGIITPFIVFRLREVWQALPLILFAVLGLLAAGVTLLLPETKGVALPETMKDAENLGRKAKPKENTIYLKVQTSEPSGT

OCT1 mutant Cys88Arg = target: T3, OCT1 mutant Cys88Arg (Homo sapiens, UniProt O15245, C88R); experiment: Cyanine863-inhibitable uptake in Xenopus oocytes expressing OCT1 mutant Cys88Arg
T3 sequence (O15245 1-554 C88R): T1 sequence (O15245 1-554) with C88R
Procedure: (§1) OCT1 wt and OCT1 mutants were expressed in Xenopus oocytes and analyzed side-by-side. Cyanine863-inhibitable uptake of radioactively labeled organic cations was measured over 30 min. a) Uptake of 0.1 μM [^3H]MPP by different mutants in comparison to OCT1. […] In different batches of oocytes, the cyanine-863-inhibited uptake of 0.1 μM [^3H]MPP expressed by OCT1 wt varied between 0.9 and 1.8 μmol×oocyte^−1×30 min^−1. […] MPP uptake was measured at 9 different MPP concentrations and K0.5 values were determined by fitting the Hill equation to the data. […] Mean values±SD of three experiments are presented. *P<0.05, **P<0.01, ***P<0.001.
(§2) After defolliculation, the oocytes were injected with 10 ng/oocycte of the respective cRNAs. […] Oocytes were incubated for 30 min with the indicated substrate concentrations in the absence or presence of 100 μM of the inhibitor cyanine863. The mutants were compared with the OCT1 wt in side-by-side experiments using oocytes from the same batch (Arndt, Am J. Physiol. Renal Physiol. 281 (2001), F454-468). Each data point corresponded to 8-10 oocytes. K0.5 values were estimated by fitting the Hill equation to the data. Mean values±SD are presented. Significance of differences was tested by unpaired Student t-tests.

OCT1 mutant Gly401Ser = target: T4, OCT1 mutant Gly401Ser (Homo sapiens, UniProt O15245, G401S); experiment: Cyanine863-inhibitable uptake in Xenopus oocytes expressing OCT1 mutant Gly401Ser
T4 sequence (O15245 1-554 G401S): T1 sequence (O15245 1-554) with G401S
Procedure: as §1, §2

OCT1 mutant Arg61Cys = target: T5, OCT1 mutant Arg61Cys (Homo sapiens, UniProt O15245, R61C); experiment: Cyanine863-inhibitable uptake in Xenopus oocytes expressing OCT1 mutant Arg61Cys; format: cell-based; details: 0.1 μM [3H]MPP, 30 min
T5 construct: expressed in transfected cells; host or cells: Xenopus laevis oocytes injected with cRNA transcribed from the pOG1 vector
T5 sequence (O15245 1-554 R61C): T1 sequence (O15245 1-554) with R61C

[1] = Hill equation fit, 9 MPP concentrations

SMILES: C[n+]1ccc(-c2ccccc2)cc1 [MPP, 1-methyl-4-phenylpyridinium]
- uptake compared to OCT1 wt (OCT1 mutant Phe160Leu; 0.1 μM [3H]MPP, 30 min): not significantly different from OCT1 wt
- half maximal concentration for substrate activation (K0.5) compared to wild-type (OCT1 mutant Phe160Leu; [1]): similar; also recorded: identical to wild-type
- maximal expressed transport rates compared to wild-type (OCT1 mutant Phe160Leu; data not shown): identical to wild-type
- reduced Vmax value compared to OCT1 wt (OCT1 mutant Phe160Leu; n=3): 32±16%
- uptake compared to OCT1 wt (OCT1 mutant Met420del; 0.1 μM [3H]MPP, 30 min): not significantly different from OCT1 wt
- half maximal concentration for substrate activation (K0.5) compared to wild-type (OCT1 mutant Met420del; [1]): identical to wild-type
- maximal expressed transport rates compared to wild-type (OCT1 mutant Met420del; data not shown): identical to wild-type
- uptake reduced by (compared to OCT1 wt) (OCT1 mutant Cys88Arg; 0.1 μM [3H]MPP, 30 min): more than 98%
- uptake reduced by (compared to OCT1 wt) (OCT1 mutant Gly401Ser; 0.1 μM [3H]MPP, 30 min): more than 98%
- uptake reduced by (compared to OCT1 wt) (OCT1 mutant Arg61Cys): 70%

SMILES: NCCc1c[nH]c2ccc(O)cc12 [serotonin]
- uptake compared to wt, relative to reduction of MPP uptake (OCT1 mutant Cys88Arg; 1 μM [3H]serotonin): significantly less reduced
- uptake compared to wt, relative to reduction of MPP uptake (OCT1 mutant Gly401Ser; 1 μM [3H]serotonin): significantly less reduced
